Results reported in patent publication US20220168384A1, “Anti-Bacterial Combination Therapy” (McMaster University, priority 2019, published 2022).
Values joined by “and” are separate entries in the source; they are usually repeats but may differ in a detail not shown here. Identical values can stand only once.

How the values were obtained:
[1] = tested on: Acinetobacter baumannii clinical isolates; assay: Clinical isolates testing, A. baumannii; format: cell-based; details: 10:90
Experimental: (§1) Clinical isolates of P. aeruginosa and A. baumannii were inoculated from −80° C. stocks into 200 μL LB broth and grown with shaking at 200 rpm, 16 h, 37° C. in Nunc 96-well plates. The overnight cultures were subcultured (1:25 dilution) into 10:90 and grown with shaking at 200 rpm, 2 h, 37° C. Vehicle controls consisted of 4 μL of DMSO, 144 μL 10:90 and 2 μL of subculture. Sterile controls consisted of 4 μL of DMSO and 146 μL 10:90. […]. The final volume of each well was 150 μL and each checkerboard was repeated at least three times. Plates were incubated with shaking at 200 rpm, 16 h, 37° C. and OD600 was measured (Multiskan Go—Thermo Fisher Scientific). The results were plotted as percent of control (wells containing only DMSO) using Prism (GraphPad).
(§2) Clinical isolates were grown and tested as described in Example 1. Briefly, clinical isolates were inoculated from glycerol stocks stored at −80° C. into Nunc 96-well plates and grown overnight at 37° C., for 16 h with shaking in LB (200 rpm). Overnights were subcultured (1:25) into fresh 10:90 medium and grown for 2 h under the same growth conditions. Subcultures were diluted 1:75 in fresh 10:90. Compounds were diluted 1:75 to obtain the final concentration. DOXY and CLI were added at a final concentration of 1 μg/mL, CO was used at 2 μg/mL, TRO was used at 4 μg/mL, TS was used at 8.3 μg/mL, and DSX was used at 32 μg/mL. Vehicle and sterility controls were included. Plates were incubated overnight with the same conditions. The OD600 was read (Multiscan Go—Thermo Fisher Scientific), analyzed using Excel, and the data plotted using Prism (GraphPad).
(§3) Culture conditions, checkerboard assays using P. aeruginosa PA14 and dose-response assays were performed as described in Example 1. In addition to TS, other thiopeptides tested were siomycin A (SM), thiocillin I (TC), micrococcin P1 (MC), nosiheptide (NH), berninamycin A (BER), and geninthiocin A (GEN). For dose response assays of the combinations conducted in 10:90, DSX concentration was constant at 64 μg/mL.

[2] = tested on: P. aeruginosa clinical isolates; assay: Clinical isolates testing, P. aeruginosa; format: cell-based, Pseudomonas aeruginosa; details: Pseudomonas aeruginosa; approximately 1 in 10 of 96 clinical isolates; 10:90
Experimental: as §1, §2, §3

[3] = Chrome azurol S (CAS) plate assay; format: physicochemical; details: 5 μl of 2 mg/ml; room temperature 1 h
P. aeruginosa PAO1 = assay: TS dose response assay (biofilm and planktonic growth); format: cell-based, Pseudomonas aeruginosa
Experimental: Briefly, P. aeruginosa was inoculated in 5 mL of LB and grown at 37° C. overnight, shaking at 200 rpm, and subsequently standardized to an OD600 of ˜ 0.1 in 10:90. For the initial screen, 1 mM compound stocks in DMSO were diluted 1:100 in standardized cell suspension (1.5 μL of compound stock in 148.5 μL of cell suspension) to a final concentration of 10 μM. Control wells contained 10:90 plus 1% DMSO (sterility control) or standardized cell suspension plus 1% DMSO (growth control). Biofilms were formed on polystyrene peg lids (Nunc). After placement of the peg lid, the plate was sealed with parafilm to prevent evaporation and incubated for 16 h at 37° C., 200 rpm. Following incubation, the 96-peg lid was removed and planktonic density in the 96 well plate measured at OD600 to assess the effect of test compounds on bacterial growth. The lid was transferred to a new microtiter plate containing 200 μl of 1× phosphate-buffered saline (PBS) per well for 10 min to wash off any loosely adherent bacterial cells, then to a microtiter plate containing 200 μL of 0.1% (wt/vol) crystal violet (CV) per well for 15 min. Following staining, the lid was washed with 70 mL of dH2O, in a single well tray, for 10 min. This step was repeated four times to ensure complete removal of excess CV. The lid was transferred to a 96-well plate containing 200 μL of 33% (vol/vol) acetic acid per well for 5 min to elute the bound CV. The absorbance of the eluted CV was measured at 600 nm (BioTek ELx800), and the results plotted as percent of the DMSO control using Prism (Graphpad). Screens were performed in duplicate. […]. Compounds of interest were further evaluated using the same assay but over a wider range of concentrations (dose-response assay). […].
For TS dose response assays, TS stock solutions were diluted in DMSO and 2 μL of the resulting solutions plus 148 μL of a bacterial suspension standardized to an OD600 of ˜0.1 in 10:90 were added to a 96 well plate in triplicate, as described above. Control wells contained 148 μL of 10:90+1.3% DMSO (sterility control) or standardized bacterial suspension+1.3% DMSO (growth control). For ethylenediamine-N,N′-bis(2-hydroxyphenylacetic acid) (EDDHA) alone or with FeCl3 experiments, 2 μL of each were added as aqueous solutions to reach final concentrations of 0.1 μM EDDHA and 100 μM FeCl3, and the amount of bacterial suspension adjusted to keep the total well volume at 150 μL. Controls for EDDHA and FeCl3 were 2 μL of sterile dH2O. Biofilms were grown for 16 h at 37° C., 200 rpm, then stained and quantified as described above. Assays were performed in triplicate and results were graphed using Prism (Graphpad) as a percentage of the DMSO control.
Deletion mutants lacking the outer membrane components of the 4 major resistance-nodulation-division (RND) efflux systems of P. aeruginosa (MexAB-OprM, MexXY-OprM, MexCD-OprJ, and MexEF-OpmD) were generated. Briefly, the pairs of primers listed in Table 3 were used to amplify regions up- and downstream of the gene to be deleted. The PCR products were digested with the restriction enzymes indicated in the primer sequences and the resulting fragments ligated into the suicide vector pEX18Gm. After DNA sequencing validation of the constructs, they were introduced into E. coli SM10 for biparental mating into P. aeruginosa PAO1. Mating mixtures were plated on Pseudomonas isolation agar containing 200 μg/ml gentamicin (Gm) to counterselect the donor. Gm-sensitive double recombinants were selected on LB agar, with no salt and with 5% (wt/vol) sucrose. Gm-sensitive deletion mutants were identified by PCR and validated by DNA sequencing of the deletion junction.

[4] = PAO1, 10:90 medium, dose-dependent, up to 10 μM TS

C=C(NC(=O)C(=C)NC(=O)c1csc(C2=N[C@@H]3c4csc(n4)[C@H]4NC(=O)c5csc(n5)[C@H]([C@](C)(O)[C@@H](C)O)NC(=O)[C@H]5CSC(=N5)/C(=C/C)NC(=O)[C@H]([C@@H](C)O)NC(=O)c5csc(n5)[C@]3(CC2)NC(=O)[C@H](C)NC(=O)C(=C)NC(=O)[C@H](C)NC(=O)[C@H]([C@@H](C)CC)N[C@@H]2C=Cc3c([C@H](C)O)cc(nc3[C@H]2O)C(=O)O[C@@H]4C)n1)C(N)=O [TS, thiostrepton]
susceptibility of A. baumannii strain C0286 [1]: resistant | activity at 5 µM ([1]; Acinetobacter baumannii, 5 μM TS, 6 of 10 strains, read-out: growth, % of control): ≤ 50% | MIC [2]: ≥ 5 µM | solubility (physchem): 10 µM and 17 µg/mL | decolorization of CAS agar (iron binding) [3]: lack of a color change | planktonic cell density and biofilm stimulation with EDDHA and FeCl3 (P. aeruginosa PAO1; PAO1, 10:90 + 0.1 μM EDDHA + 100 μM FeCl3): increased planktonic cell density and reduced biofilm stimulation | biofilm stimulation and growth inhibition with EDDHA (P. aeruginosa PAO1; PAO1, 10:90 + 0.1 μM EDDHA versus 10:90 alone): shifted biofilm stimulation and growth inhibition to lower concentrations of TS | biofilm formation (P. aeruginosa PAO1; [4]): stimulated biofilm formation | planktonic cell density (P. aeruginosa PAO1; [4]): decreased planktonic cell density | TS concentrations at which planktonic cell density decreased to below the level of detection (P. aeruginosa PAO1; PAO1, VBMM): > 0.63 µM | TS susceptibility on supplementation with casamino acids (P. aeruginosa PAO1; PAO1, VBMM + 0.1% casamino acids): no change in TS susceptibility | TS susceptibility on supplementation with MgCl2 (P. aeruginosa PAO1; PAO1, VBMM + 100 mM MgCl2): no effect on susceptibility | TS susceptibility of mutants lacking the major efflux pumps (P. aeruginosa PAO1; PAO1 efflux deletion mutants): near-wild-type susceptibility | TS susceptibility on deletion of peptide transport systems (P. aeruginosa PAO1; simultaneous deletion of components of Opp (Npp) and Spp): no effect on TS susceptibility
